In article PMC9880438, “Pharmacokinetics of active compounds of a Terminalia chebula Retz. Ethanolic extract after oral administration rats using UPLC-MS/MS” (Frontiers in Pharmacology, 2023):

Experiments:
[1] = Stability of QC samples of the analytes in rat plasma under storage conditions; assay type: physicochemical; details: n = 6
Protocol: Preparation of quality control (QC) samples with three concentrations (low, medium, and high) of 16, 160, and 3,200 ng/ml for ellagic acid; 1.6, 16, 320 ng/ml for protocatechuic acid, ethyl gallate and 1,2,3,4,6-O-pentagalloylglucose; 40, 400 and 8,000 ng/ml for chebulic acid, gallic acid, corilagin and chebulinic acid and 160, 1,600, 32000 ng/ml for chebulagic acid. Both QC samples and stock solutions were stored in a refrigerator at 4°C.
Under variable treatment conditions: stored for 12 h at auto-sampler, for 4 hours at room temperature, under three freeze-thaw cycles, and kept at −80°C for 7 days, quality control samples were analyzed to assess the stability of the nine analytes in plasma.

[2] = Pharmacokinetic study in rats after oral administration of TC extracts (UPLC-MS/MS of plasma); details: male, Sprague-Dawley, rat, plasma, po, 10 g/kg
Protocol: UPLC-MS/MS system was used for analysis and monitoring, which consisted primarily of an Agilent 1290 UPLC system (Agilent Technologies, Germany) and an Agilent 6,470 series triple quad (TQ) mass spectrometer (MS) (Agilent Technologies, Singapore) equipped with an electrospray ionization source.
Separation was carried out on an ACQUITY UPLC® HSS T3 column (2.1 × 100 mm, 1.8 μm), and temperature in the column was kept at 20°C. In the mobile phase, 0.1% formic acid in water and acetonitrile were used as solvents A and B, respectively. Gradient elution was performed as follows: 1%–5% B at 0–3 min; 5%–30% B at 3–4 min; 30%–40% B at 4–8 min; 40%–100% B at 8–9 min; 100%–100% B at 9–12 min. The flow rate was set at 0.3 ml/min and the injection volume was 10 μL.
Multiple reaction monitoring (MRM) was used for quantitative analysis in negative (−) ionization mode. The mass spectrometric parameters were set as follows: drying gas (N2) temperature was 300°C; gas (N2) flow rate was 7 L/min; atomizer pressure was 35 psi; sheath gas flow was 11 L/min and capillary voltage was 3800 V. The specific mass spectrometric parameters of the precursor ion, product ion, fragmentor, collision energy, and ion modes of the nine compounds and IS are shown in Table 1.
The plasma sample (100 μl) was sequentially spiked with 20 μl IS solutions (caffeic acid, 1,000 ng/ml); 20 μL methanol, and 10 μl formic acid, then vortex-mixed for 1 min. The mixture was precipitated protein with 1,000 μl methanol by vortex mixing for 3 min. The supernatant was collected into a 1.5 ml clean centrifuge tube after centrifugation at for 10 min 14,000 rpm, and evaporated under a nitrogen stream until dry. After that, the residue was redissolved in 100 μl methanol, vortex-mixed for 3 min, then centrifuged for 10 min at 14,000 rpm. 10 μl analyte was injected into the UPLC-MS/MS system.
In this study, six of male rats were used, given free access to water, and fasted for 12 h before the experimental period. The TC extracts were dissolved in 0.5% CMC-Na aqueous solution as a suspension at a concentration of 1 g/ml. A dose of 10 g/kg of the suspension was administered to the rats orally, the blood samples of approximately 300 μL were drawn from the fundus venous plexus of rats pre- and post-oral administration at 0.00, 0.08, 0.17, 0.25, 0.50, 0.75, 1, 2, 4, 6, 8, 10, 12, 24, 36, 48, 60, 72, 84, 96, 120, 144 and 168 h, respectively. For analysis, the plasma supernatants collected from the centrifuged plasma were frozen at −80°C after centrifugation for 10 min at 6,000 rpm.
Data were expressed as mean ± standard deviation (mean ± SD). MassHunter Workstation software (version B.09.00) was quantitatively used to calculate the plasma concentrations of nine analytes. To evaluate the specific pharmacokinetic parameters, DAS Software (DAS 3.0, Medical College of Wannan, China) was used to process the pharmacokinetic results.

HepG2 cells = tested on: HepG2 cells; parameters: method as in Achari et al., 2011; details: 50 μM; ref Achari et al., 2011; cited from earlier work

Measured concentration after storage ([1]; spiked 160 ng/mL, autosampler for 12 h): 145.5 ± 16.4 ng/mL
Measured concentration after storage ([1]; spiked 160 ng/mL, room temperature for 4 h): 160.8 ± 6.2 ng/mL
Measured concentration after storage ([1]; spiked 160 ng/mL, three freeze-thaw cycles): 167.9 ± 7.8 ng/mL
Measured concentration after storage ([1]; spiked 160 ng/mL, −80°C for 7 days): 168.0 ± 4.2 ng/mL
Measured concentration after storage ([1]; spiked 1,600 ng/mL, autosampler for 12 h): 1,448.9 ± 70.5 ng/mL
Measured concentration after storage ([1]; spiked 1,600 ng/mL, room temperature for 4 h): 1,465.3 ± 158.2 ng/mL
Measured concentration after storage ([1]; spiked 1,600 ng/mL, three freeze-thaw cycles): 1,391.9 ± 61.5 ng/mL
Measured concentration after storage ([1]; spiked 1,600 ng/mL, −80°C for 7 days): 1,512.8 ± 65.1 ng/mL
Measured concentration after storage ([1]; spiked 32000 ng/mL, autosampler for 12 h): 34277.3 ± 2,721.2 ng/mL
Measured concentration after storage ([1]; spiked 32000 ng/mL, room temperature for 4 h): 31970.0 ± 1,256.3 ng/mL
Measured concentration after storage ([1]; spiked 32000 ng/mL, three freeze-thaw cycles): 33770.8 ± 3,365.5 ng/mL
Measured concentration after storage ([1]; spiked 32000 ng/mL, −80°C for 7 days): 31615.2 ± 953.8 ng/mL
AUC [2]: 231 ± 64.6 µg·h/mL
AUC(0-inf) [2]: 234 ± 65.7 µg·h/mL
Cmax [2]: 4980 ng/mL
MRT [2]: 49.8 ± 4.87 h
MRT inf [2]: 51.8 ± 5.3 h
Tmax [2]: 5.67 ± 3.67 h
half-life [2]: 20 ± 2.51 h
Structure (SMILES): O=C(O)C[C@@H]1C(=O)O[C@H]2[C@@H]3OC(=O)c4cc(O)c(O)c(O)c4-c4c(cc(O)c(O)c4O)C(=O)OC[C@H]2O[C@@H](OC(=O)c2cc(O)c(O)c(O)c2)[C@@H]3OC(=O)c2cc(O)c(O)c3c2[C@H]1[C@H](O)C(=O)O3 [Chebulagic acid, chebulagic acid]
Sensitivity of HepG2 cells towards Dox induced cytotoxicity (HepG2 cells): increased the sensitivity
